Results published in paper PMC12064818, “A general assay platform to study protein pharmacology using ligand-dependent structural dynamics” (Nature Communications, 2025).
Where “and” joins values, the source holds several entries; their conditions need not be identical. Equal entries are not always repeated.

Molecular target: FLuc-C-NLuc (firefly luciferase) (Photinus pyralis, UniProt P08659, form not given/L550V)
Experiment: Firefly luciferase (FLuc) enzymatic luminescence assay, FLuc-C-NLuc
Assay type: biochemical
Design: key to Enz: % normalized; no enzyme control = 100% inhibition, DMSO = 0
Conditions: for Enz: Log[Compound]
Procedure: The enzyme activity of FLuc-N-HiBiT, FLuc-C-HiBiT, and FLuc-C-NLuc was measured similar to P. pyralis firefly luciferase (FLuc) as previously described. […] Compounds and controls were added to each plate as described in Supplementary Data 8 with a Hornet pintool system (Wako Automation). Compounds were incubated with respective enzymes for 30–60 min at room temperature protected from light and covered by solid metal lid to prevent evaporation. […] Luciferin was incubated with FLuc enzyme for 5 min before FLuc activity was then measured on a ViewLux CCD imager (PerkinElmer), with exposure times up to ten seconds with medium to high gain settings. Data were normalized to average no enzyme control as 100% enzyme inhibition and average DMSO neutral control. See Supplementary Table 4 for additional details.
Supplementary Table 4. Protocol for Firefly luciferase (FLuc) and NanoLuc (NLuc) enzymatic
Supplementary Table 4: Protocol for Firefly luciferase (FLuc) and NanoLuc (NLuc) enzym atic lum inescence assay
Firefly luciferase (FLuc) enzym atic lum inescence assay
Sequence Param eter Value Description
No enzym e control (colum n 1) and enzym e solution (1- 10 nM FLuc enzym e) in FLuc assay
1 Reagent 4 µLbuffer; white/solid bottom , m edium bind, high base plates (Greiner), dispensed with BioRaptr
com pounds transferred to respective colum ns with Pintool
2b Test Com pounds 23 nLconcentration range) in colum ns 5- 48; com pounds transferred to respective wells with
3 Incubation 30 m in Incubate enzym e + com pounds at am bient tem p for 30 m in, protected from light
4 Reagent 3 µLAdd 3 µL of D-luciferin substrate solution to each well (final concentration 10 µM); dispensed
5 Detector ViewLux Read plate lum inescence (Exposure = 1- 10 sec; Gain = Medium -high; Speed = Slow;
Dispensing solution was diluted in 1X PBS, pH 7.4. […]

[1] = FLuc-C-NLuc (1 nM) + 10 mM ATP, 32.8 µM ligand

Sequence of FLuc-C-NLuc (firefly luciferase) (P08659 2-550 L550V, form open): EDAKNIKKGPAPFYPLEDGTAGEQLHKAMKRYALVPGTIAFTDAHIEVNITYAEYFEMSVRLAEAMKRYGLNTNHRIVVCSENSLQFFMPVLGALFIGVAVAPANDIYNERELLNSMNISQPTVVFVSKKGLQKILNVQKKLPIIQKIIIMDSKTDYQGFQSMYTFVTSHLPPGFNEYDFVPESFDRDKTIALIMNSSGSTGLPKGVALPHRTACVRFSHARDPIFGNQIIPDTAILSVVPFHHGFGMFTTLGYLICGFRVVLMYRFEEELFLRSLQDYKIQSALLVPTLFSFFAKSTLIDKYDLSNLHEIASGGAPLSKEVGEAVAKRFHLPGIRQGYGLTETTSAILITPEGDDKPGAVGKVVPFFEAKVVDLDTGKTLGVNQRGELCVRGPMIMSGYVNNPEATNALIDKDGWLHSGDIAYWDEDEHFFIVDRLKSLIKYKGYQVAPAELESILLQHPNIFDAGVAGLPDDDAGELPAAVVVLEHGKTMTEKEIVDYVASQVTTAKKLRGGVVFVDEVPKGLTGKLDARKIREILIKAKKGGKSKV

In the case of `O=C(O)c1cccc(-c2noc(-c3ccccc3F)n2)c1` [PTC124, reference compound], the “Functional Enzymatic Assay” value (1 nM FLuc-C-NLuc, Log [PTC124], M -6.87, replicates) is reported as 5.5 RLU and 5.8 RLU and 4.9 RLU and 5.4 RLU, the “pIC50, FLuc-C-NLuc (1 nM)” value (10 μM ATP) is reported as 9.85 ± 0.03 and the “Standard assay statistics Ave RLU” value [1] is reported as 18.2 RLU. The “Standard assay statistics S:B” value [1] was 48.3, the “Standard assay statistics S:N” value [1] was 14.7 and the “Standard assay statistics Z’” value [1] was 0.775. For the same compound, the “1 nM FLuc-C-NLuc Enz, Mean” value (Log [PTC124], M -4.48) was 0.85 RLU, the “1 nM FLuc-C-NLuc Enz, Mean” value (Log [PTC124], M -4.96) was 0.8 RLU and the “1 nM FLuc-C-NLuc Enz, Mean” value (Log [PTC124], M -5.44) was 1.3 RLU. For the same compound, the “1 nM FLuc-C-NLuc Enz, Mean” value (Log [PTC124], M -5.91) was 1.6 RLU, the “1 nM FLuc-C-NLuc Enz, Mean” value (Log [PTC124], M -6.39) was 2.8 RLU and the “1 nM FLuc-C-NLuc Enz, Mean” value (Log [PTC124], M -6.87) was 5.9 RLU. The “1 nM FLuc-C-NLuc Enz, Mean” value (Log [PTC124], M -7.35) was 11.8 RLU, the “1 nM FLuc-C-NLuc Enz, Mean” value (Log [PTC124], M -7.82) was 27.4 RLU and the “1 nM FLuc-C-NLuc Enz, Mean” value (Log [PTC124], M -8.30) was 69.9 RLU. The “1 nM FLuc-C-NLuc Enz, Mean” value (Log [PTC124], M -8.78) was 146.5 RLU, the “1 nM FLuc-C-NLuc Enz, Mean” value (Log [PTC124], M -9.25) was 188.2 RLU and the “1 nM FLuc-C-NLuc Enz, Mean” value (Log [PTC124], M -9.73) was 384.3 RLU. For the same compound, the “1 nM FLuc-C-NLuc Enz, Mean” value (Log [PTC124], M -10.21) was 641.6 RLU, the “1 nM FLuc-C-NLuc Enz, Mean” value (Log [PTC124], M -10.69) was 817.0 RLU and the “1 nM FLuc-C-NLuc Enz, Mean” value (Log [PTC124], M -11.16) was 872.5 RLU. The “1 nM FLuc-C-NLuc Enz, Mean” value (Log [PTC124], M -11.64) was 882.4 RLU.
Compound `CC(CNC(=O)C1CCN(C(=O)c2ncn3c2COC(c2ccccc2)C3)CC1)c1ccccc1` (stereo not drawn) [compound 00449795] has an Enz (M -4.48) of -89.10, an Enz (M -4.96) of -73.93 and an Enz (M -5.44) of -56.58. The Enz (M -5.91) was -29.78, the Enz (M -6.39) was -11.92 and the Enz (M -6.87) was -0.00581. The Enz (M -7.35) was 4.23, the Enz (M -7.82) was 7.74 and the Enz (M -8.30) was 6.20. The Enz (M -8.78) was 3.71 and the Enz (M -9.25) was 4.09.
